Measured values: paper PMC8151276, “An Integrated Approach toward NanoBRET Tracers for Analysis of GPCR Ligand Engagement” (Molecules, 2021)

Key:
Assay type in all cases: binding
HTR4 = molecular target: T1, HTR4 (Homo sapiens, UniProt Q13639); assay: NanoBRET screen HiBiT-HTR4 in HEK293; details: HTR4
T1 construct: purchased Promega (in-house HiBiT-GPCR construct library, NanoBRET)
Experimental: (§1) Each tracer candidate was screened across the entire library of HiBiT-GPCR constructs using NanoBRET as the detection modality. As depicted in Figure 4A, the specificity of interactions was evaluated through decrease in BRET due to competitive displacement of a bound tracer by excess parental compound. Each tracer was analyzed for binding to each HiBiT-GPCR fusion in the absence and in the presence of competing parental compound. Briefly, HEK293 cells were transfected with HiBiT-GPCR constructs diluted into promoterless DNA to reduce expression and maximize translocation to the cell surface. Each tracer candidate was then screened at concentrations of 1 μM and 0.1 μM across cells expressing these fusions. Cells were treated for 1.5 h with tracer either alone or in the presence of 20 μM competing parental compound (i.e., control). BRET was measured upon addition of purified LgBiT and subsequent complementation with HiBiT genetically fused to a GPCR. The specificity of interactions was assessed through a decrease in BRET signal due to competitive displacement of the bound tracer. To further gauge the robustness of these interactions, the fold response over the control (i.e., BRETtracer/BRETcontrol) was calculated. We chose a 1.5-fold response, which translates to ≥7-fold signal over noise as the minimal threshold required to score an interaction as positive. […]. Below we highlight the screening results obtained for our exemplary fluorescent tracers based on Clozapine, Amitriptyline and AZD1283.
(§2) HiBiT-GPCR DNA constructs were diluted in 10 mM Tris pH 8 to a final concentration of 0.01 μg/μL, arrayed in 96-well plates and stored at −20 °C. For transfection, HEK293 cells were suspended in Opti-MEM (without phenol red) supplemented with 2% fetal bovine serum (Seradigm) and 100 units/mL penicillin–streptomycin (Gibco) at a final concentration of 220,000 cells/mL and dispensed into white 96-well plates at 90 μL/well. Subsequent transfections and screens were carried using an Agilent Bravo Automated Liquid Handling Platform. First, the 96-well HiBiT DNA arrays were diluted 25-fold in Opti-MEM (without serum or phenol red) to a final concentration of 0.0004 μg/μL and 20 μL of the diluted DNAs were transferred into new 96-well plates. Next, promoterless carrier DNA (1 μg/μL) was diluted 25-fold (0.04 μg/μL) and then dispensed into the diluted arrays at 20 μL/well. Following brief mixing, Viafect transfection reagent (Promega) diluted 16-fold into Opti-MEM was dispensed into the plates at 40 μL/well. After mixing by pipetting, plates were incubated for 10 min on the pipetting station deck. The DNA-transfection reagent complexes were then added to plates containing cells. To facilitate the screen, 10 μL of DNA-transfection reagent complexes were added in duplicates to the top 4 and bottom 4 rows, resulting in two identical 48-well arrays per plate. Plates with transfected cells were incubated for 18–20 h at 37 °C/5% CO2. A screen of each tracer across the entire library using two different concentrations requires duplicate plates of transfected cells. Depending on the number of tracers being screened, transfections can be scaled up using the same ratios. The next day, for each tracer, four 20× screening solutions in tracer dilution buffer (Promega) were prepared: two duplicates at final concentration of 20 μM and two duplicates at a final concentration of 2 μM. A competing unmodified compound was added to one of each duplicate at a final concentration of 400 μM. The four resulting solutions were diluted 4-fold in Opti-MEM without serum or phenol red to generate 5× solutions (5 µM and 0.5 µM tracer +/− 100 μM competing compound). To screen the library, a BioTek MultiFlo FX liquid dispenser was used to dispense 22.5 µL of tracer solution to the top 4 rows and 22.5 µL tracer + competing compound solution to the 4 bottom rows. Plates were briefly mixed on an orbital shaker and incubated for 1.5 h at room temperature. […]

P2RY4 = molecular target: T2, P2RY4 (Homo sapiens, UniProt P51582); assay: NanoBRET screen HiBiT-P2RY4 in HEK293; details: P2RY4
T2 construct: purchased Promega (in-house HiBiT-GPCR construct library, NanoBRET)
Experimental: as §1, §2

CCR4 = molecular target: T3, CCR4 (Homo sapiens, UniProt P51679); assay: NanoBRET screen HiBiT-CCR4 in HEK293; details: CCR4
T3 construct: purchased Promega (in-house HiBiT-GPCR construct library, NanoBRET)
T3 sequence (P51679 1-360): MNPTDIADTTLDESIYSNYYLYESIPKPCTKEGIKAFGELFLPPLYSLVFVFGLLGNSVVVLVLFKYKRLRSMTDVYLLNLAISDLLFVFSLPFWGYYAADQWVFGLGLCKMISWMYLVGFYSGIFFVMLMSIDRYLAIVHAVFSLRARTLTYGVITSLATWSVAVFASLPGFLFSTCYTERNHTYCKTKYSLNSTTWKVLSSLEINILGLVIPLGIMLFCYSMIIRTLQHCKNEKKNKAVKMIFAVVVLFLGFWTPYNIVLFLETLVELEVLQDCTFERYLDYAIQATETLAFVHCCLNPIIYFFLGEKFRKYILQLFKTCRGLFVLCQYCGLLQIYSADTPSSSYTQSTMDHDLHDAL
Experimental: as §1, §2

T1 sequence (Q13639 whole entry): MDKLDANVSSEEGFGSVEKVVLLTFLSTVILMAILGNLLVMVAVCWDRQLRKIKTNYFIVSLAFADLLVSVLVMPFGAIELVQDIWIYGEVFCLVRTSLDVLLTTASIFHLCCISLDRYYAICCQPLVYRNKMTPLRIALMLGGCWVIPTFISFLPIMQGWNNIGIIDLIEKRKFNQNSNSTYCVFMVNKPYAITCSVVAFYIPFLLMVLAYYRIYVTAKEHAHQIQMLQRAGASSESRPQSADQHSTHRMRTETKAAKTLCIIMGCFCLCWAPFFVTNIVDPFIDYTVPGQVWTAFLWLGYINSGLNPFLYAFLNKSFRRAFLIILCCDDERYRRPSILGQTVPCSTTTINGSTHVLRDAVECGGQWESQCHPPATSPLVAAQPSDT
T2 sequence (P51582 whole entry): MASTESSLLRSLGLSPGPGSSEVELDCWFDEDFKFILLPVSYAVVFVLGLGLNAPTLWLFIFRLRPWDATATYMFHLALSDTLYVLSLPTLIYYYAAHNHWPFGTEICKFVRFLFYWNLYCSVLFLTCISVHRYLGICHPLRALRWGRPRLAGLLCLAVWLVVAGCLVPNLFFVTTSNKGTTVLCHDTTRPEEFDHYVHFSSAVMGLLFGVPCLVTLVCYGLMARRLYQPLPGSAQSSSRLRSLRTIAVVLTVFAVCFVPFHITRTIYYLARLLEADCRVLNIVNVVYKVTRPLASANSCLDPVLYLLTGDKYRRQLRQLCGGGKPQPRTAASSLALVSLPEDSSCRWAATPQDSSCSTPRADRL

Structure (SMILES) | NanoBRET Fold Response (HTR4; 0.1μM tracer) | NanoBRET Fold Response (HTR4; 1μM tracer) | NanoBRET Fold Response (P2RY4; 0.1μM tracer) | NanoBRET Fold Response (P2RY4; 1μM tracer) | NanoBRET Fold Response (CCR4; 0.1μM tracer) | NanoBRET Fold Response (CCR4; 1μM tracer) | NanoBRET Fold Response (HTR4; tracer 0.1μM) | NanoBRET Fold Response (HTR4; tracer 1μM) | NanoBRET Fold Response (P2RY4; tracer 0.1μM) | NanoBRET Fold Response (P2RY4; tracer 1μM) | NanoBRET Fold Response (CCR4; tracer 0.1μM) | NanoBRET Fold Response (CCR4; tracer 1μM) | also measured
O=C(CCOCCOCCOCCOCCNC(=O)CCc1ccc2n1[B-](F)(F)[N+]1=C(c3ccc[nH]3)C=CC1=C2)NCCCN1CCN(C2=Nc3cc(Cl)ccc3Nc3ccccc32)CC1 [Clozapine-a-2-NB590] | 1.02 | 1.12 | 1.09 | 0.96 | 1.05 | 0.85 |  |  |  |  |  |  | 
CN1CCN(C2=Nc3cc(Cl)ccc3Nc3ccc(CNC(=O)CCOCCOCCOCCOCCNC(=O)CCc4ccc5n4[B-](F)(F)[N+]4=C(c6ccc[nH]6)C=CC4=C5)cc32)CC1 [Clozapine-b-2-NB590] | 0.98 | 0.99 | 0.97 | 0.97 | 1.04 | 0.96 |  |  |  |  |  |  | 
CN1CCN(C2=Nc3cc(Cl)ccc3N(CC(=O)NCCOCCOCCOCCOCCNC(=O)CCc3ccc4n3[B-](F)(F)[N+]3=C(c5ccc[nH]5)C=CC3=C4)c3ccccc32)CC1 [Clozapine-c-2-NB590] | 1.02 | 1.07 | 1.00 | 0.95 | 0.97 | 0.72 |  |  |  |  |  |  | 
O=C(CCOCCOCCOCCOCCNC(=O)CCc1ccc2n1[B-](F)(F)[N+]1=C(c3ccc[nH]3)C=CC1=C2)NCCCN1CCN(C2=Nc3ccccc3Oc3ccc(Cl)cc32)CC1 [Loxapine-a-2-NB590] |  |  |  |  |  |  | 1.02 | 1.04 | 0.95 | 1.28 | 1.03 | 1.19 | 
COc1ccccc1N1CCN(CCCCN2C(=O)c3ccc(CNC(=O)CCOCCOCCOCCOCCNC(=O)CCc4ccc5n4[B-](F)(F)[N+]4=C(c6ccc[nH]6)C=CC4=C5)cc3C2=O)CC1 [NAN-190-2-NB590] |  |  |  |  |  |  |  |  |  | 1.18 | 0.98 | 1.12 | 
COc1ccccc1N1CCN(CCCCN2C(=O)c3ccc(CNC(=O)CCOCCNC(=O)c4ccc(CNC(=O)CCc5ccc6n5[B-](F)(F)[N+]5=C(c7ccc[nH]7)C=CC5=C6)cc4)cc3C2=O)CC1 [NAN-190-3-NB590] |  |  |  |  |  |  | 1.00 | 1.03 | 0.86 | 0.82 | 0.85 | 1.11 | 
O=C(CCc1ccc2n1[B-](F)(F)[N+]1=C(c3ccc[nH]3)C=CC1=C2)NCc1ccc(C(=O)NCCOCCC(=O)N[C@@H]2CC[C@@]3(O)[C@H]4Cc5ccc(O)c6c5[C@@]3(CCN4CC3CC3)[C@H]2O6)cc1 [Naltrexone-3-NB590] |  |  |  |  |  |  | 0.97 | 1.05 | 1.32 | 0.88 | 0.32 | 0.97 | 
Cc1cc2c(s1)Nc1ccccc1N=C2N1CCN(CCCNC(=O)CCOCCOCCOCCOCCNC(=O)CCc2ccc3n2[B-](F)(F)[N+]2=C(c4ccc[nH]4)C=CC2=C3)CC1 [Olanzapine-a-2-NB590] |  |  |  |  |  |  | 1.02 | 1.02 | 1.07 | 0.95 | 1.01 | 0.92 | 
O=C(CCc1ccc2n1[B-](F)(F)[N+]1=C(c3ccc[nH]3)C=CC1=C2)NCc1ccc(C(=O)NCCOCCOCCNCC(O)COc2cccc3ccccc23)cc1 (stereo not drawn) [Propranolol-3-NB590] |  |  |  |  |  |  |  |  |  |  |  |  | NanoBRET Fold Response (HTR4; 0.1μM): 1.26; NanoBRET Fold Response (HTR4; 1μM): 1.41; NanoBRET Fold Response (P2RY4; 0.1μM): 1.03; NanoBRET Fold Response (P2RY4; 1μM): 0.92; NanoBRET Fold Response (CCR4; 0.1μM): 1.11; NanoBRET Fold Response (CCR4; 1μM): 1.03
